Source: patent US5182378A, “Sulfate derivatives of galactan extracted from Klebsiella” (Roussel Uclaf, priority 1989, dated 1993)

Experiments:
HIV virus (MT4 cells) = assay: MT4 / MTT test (inhibition of the infection of MT4 cells); assay type: cell-based; settings: 7 days at 37° C., MTT reading
Protocol: technique: 100 microliter dilutions of the virus in series in a microtitration plate addition of 100 microliters of cellular suspension containing 5×10^4 MT4 cells culture 7 days at 37° C., 5% CO2 addition of MTT (tetrazolium salt viability coloring agent) incubation 4 hours at 37° C. halting the reaction by the addition of a hydrochloric acid solution in isopropane reading of the optical density (OD) at 540 nm (after dissolution of the crystals).
MT4 cells at 10^6 cells/ml were used and dilution to 1/2 took place with or without the studied product at different concentrations. 100 microliters of HIV virus at different dilutions and 100 microliters of pre-treated cell suspension were introduced onto a microtitration plate. Incubation took place at 37° C. for 7 days and the MTT was added and a reading was taken with a spectrophotometer. The percentage inhibition of the infection of MT4 cells was determined and the results are shown hereafter: […]

[1] = tested on: syncitia formation in co-culture of H 9 III cells (chronically infected) with SUP T1 cells; assay: Inhibition of syncitia (co-culture of H 9 III cells with SUP T1 cells); assay type: cell-based, HIV; settings: for Percentage of inhibition (syncitia), H 9 III cells: H 9 III cells pre-incubated with product one night at 37° C. before co-culture; for Percentage of inhibition (syncitia), Sup Ti cells: Sup Ti cells pre-incubated with product one night at 37° C. before co-culture; for Percentage of inhibition (syncitia), Test no. 1 / Percentage of inhibition (syncitia), Test no. 2: co-culture with product without previous incubation
Protocol: The activity of the sulfate derivative of galactan extracted from Klebsiella was determined by measurement of the inhibition of syncitia [Gruters et al, Nature, Vol. 330, p. 74 to 77, (5 Nov. 1987)] and by determination of the protective activity exercised vis-a-vis certain cell cultures.
A co-culture of H 9 III cells (chronically infected 10^5 cells/ml) with SUP T1 cells (non-infected: 2×10^5 cells/ml) was carried out and there was syncitia formation which was counted with a microscope. Each type of cell was pre-incubated or non-preincubated with the studied product for one night at 37° C. If there was no pre-incubation, the studied product was added to cells at the moment the culture was carried out. When there was inhibition of Syncitia formation in the treated cells relative to the control cells, the studied product was protective. The results obtained are shown hereafter.

HIV virus (H9 cells) = assay: H9 test (reverse transcriptase on supernatant and immunofluorescence on cells); assay type: cell-based; settings: D+11; for Reverse Transcriptase % inhibition / Reverse Transcriptase cpm/cm^3 × 10^4: H9 cells supernatant; for Immunofluorescence % fluorescent cells / Immunofluorescence % inhibition: H9 cells
Protocol: H9 cells were used which were treated with polybrene, washed, and taken up in 100 microliters of medium, with or without the studied product at different concentrations. After incubating for 2 hours at 37° C. 100 microliters of HIV virus at 1/10 were added and the mixture was kept for 1 hour at 37° C. and then washed. The cells were taken up in 1 ml of medium with or without the studied product, and distributed into 2 wells, 500 microliters per well and 2×10^5 cells by well. On D+4, 500 microliters of culture medium with or without the studied product were added. On D+8, half of the supernatant was replaced with new medium. On D+11, a quantitative analysis by reverse transcriptase was carried out on the supernatant and an immunofluorescent determination was carried out on the cells. The results are shown hereafter.

Sulfate derivative of the qalactan extracted from Klebsiella [Example 1]
Percentage of inhibition of the infection of MT4 cells (HIV virus (MT4 cells); 1 micrograms/cm^3): 74% | Percentage of inhibition of the infection of MT4 cells (HIV virus (MT4 cells); 10 micrograms/cm^3): 99% | Percentage of inhibition of the infection of MT4 cells (HIV virus (MT4 cells); 100 micrograms/cm^3): 84% | Percentage of inhibition (syncitia), H 9 III cells ([1]; 1 micrograms/cm^3): 17% | Percentage of inhibition (syncitia), Sup Ti cells ([1]; 1 micrograms/cm^3): 23% | Percentage of inhibition (syncitia), Test no. 1 ([1]; 1 micrograms/cm^3): 0% | Percentage of inhibition (syncitia), Test no. 2 ([1]; 1 micrograms/cm^3): 10% | Percentage of inhibition (syncitia), H 9 III cells ([1]; 10 micrograms/cm^3): 23% | Percentage of inhibition (syncitia), Sup Ti cells ([1]; 10 micrograms/cm^3): 27% | Percentage of inhibition (syncitia), Test no. 1 ([1]; 10 micrograms/cm^3): 42% | Percentage of inhibition (syncitia), Test no. 2 ([1]; 10 micrograms/cm^3): 17% | Percentage of inhibition (syncitia), H 9 III cells ([1]; 100 micrograms/cm^3): 100% | Percentage of inhibition (syncitia), Sup Ti cells ([1]; 100 micrograms/cm^3): 100% | Percentage of inhibition (syncitia), Test no. 1 ([1]; 100 micrograms/cm^3): 100% | Percentage of inhibition (syncitia), Test no. 2 ([1]; 100 micrograms/cm^3): 100% | Reverse Transcriptase % inhibition (HIV virus (H9 cells); 1 micrograms/cm^3): 76% | Reverse Transcriptase cpm/cm^3 × 10^4 (HIV virus (H9 cells); 1 micrograms/cm^3): 6.42 cpm/cm^3 × 10^4 | Immunofluorescence % fluorescent cells (HIV virus (H9 cells); 1 micrograms/cm^3): 3% | Immunofluorescence % inhibition (HIV virus (H9 cells); 1 micrograms/cm^3): 94% | Reverse Transcriptase % inhibition (HIV virus (H9 cells); 10 micrograms/cm^3): 100% | Reverse Transcriptase cpm/cm^3 × 10^4 (HIV virus (H9 cells); 10 micrograms/cm^3): 1.16 cpm/cm^3 × 10^4 | Immunofluorescence % fluorescent cells (HIV virus (H9 cells); 10 micrograms/cm^3): 0% | Immunofluorescence % inhibition (HIV virus (H9 cells); 10 micrograms/cm^3): 100% | Reverse Transcriptase % inhibition (HIV virus (H9 cells); 100 micrograms/cm^3): 100% | Reverse Transcriptase cpm/cm^3 × 10^4 (HIV virus (H9 cells); 100 micrograms/cm^3): 1.12 cpm/cm^3 × 10^4 | Immunofluorescence % fluorescent cells (HIV virus (H9 cells); 100 micrograms/cm^3): 0% | Immunofluorescence % inhibition (HIV virus (H9 cells); 100 micrograms/cm^3): 100%
